Source: paper PMC10716148 (Scientific Reports, 2023)
“Also recorded” adds a separate entry of the source.

Experiments:
[1] = test system: B16F10 melanoma cells; assay: Anti-melanogenic assay (melanin content) in B16F10 cells; format: cell-based, Murine; conditions: mean ± SD (n = 3)
Protocol: (§1) Murine melanoma B16F10 cells (obtained from DS Pharma Biomedical, Japan) were cultivated in Dulbecco's Modified Eagle Medium (DMEM), a liquid medium supplemented with 10% fetal bovine serum (FBS) and 1% penicillin/streptomycin. The cells were incubated at a temperature of 37 °C within a controlled humidified environment containing 5% CO2. To facilitate subculture, the cells were detached from the culture flask using trypsin solution. Subsequently, the cells were subjected to staining with trypan blue solution and quantified using a hemocytometer for further analysis. The final concentration of DMSO was 0.1% for all experiments.
Murine melanoma B16F10 cells were gently rinsed with phosphate-buffered saline (PBS) and detached from the cell tissue culture dish using trypsin. The cells were subsequently seeded in 24-well culture plates at a density of 5 × 10^4 cells per well and allowed to incubate for 24 h before being subjected to treatment with the experimental samples. Arbutin was used as a positive control. Following the treatment, the cells were further incubated for an additional 72 h, and the absorbance was measured at 510 nm using a microplate reader. Melanin production was expressed as a percentage relative to the control cells treated with DMSO. All experiments were conducted in triplicate. The IC50 value was calculated. The percentage of total melanin content was determined using the following equation: %Totalmelanincontent=Abstreated cells-Absblank of treated cells/Abscontrol-Absblank of control×100

[2] = test system: B16F10 melanoma cells; assay: Cytotoxicity assay (MTT) in B16F10 cells; format: cell-based, Murine; conditions: for Cytotoxicity: B16F10 melanoma cells, 72 h
Protocol: as §1
Cytotoxicity was assessed through the utilization of the MTT assay. The cell culture was initiated in 24-well plates, with a seeding density of 5 × 10^4 cells per well. After treatment with samples for 72 h, 10 µL of MTT solution (5 mg/mL in PBS) were added to each well and incubated for additional 3 h. Then, supernatant was removed and DMSO (250 µL) was added to dissolve the formed formazan crystals. The absorbance was measured at 570 nm using a microplate reader. Cells treated solely with DMSO served as the control. All experiments were conducted in triplicate. The percentage of cell viability was determined using the following calculation: %Cellviability=Abstreated cells-Absblank of treated cells/Abscontrol-Absblank of control×100

[3] = Accelerated stability test, chemical stability by HPLC; format: physicochemical; conditions: for remaining at 720 h: cosmetic formulation F1, after 30 days (1 month) at 45 °C
[4] = test system: melanocytes; design: method as in Tang et al. [15]; conditions: ref Tang et al. [15]; cited from earlier work
[5] = Mus musculus, B16-F10, 72 h treatment

OC[C@H]1O[C@@H](Oc2ccc(O)cc2)[C@H](O)[C@@H](O)[C@@H]1O [Arbutin]
IC50 [1, 5]: 807.6 ± 2.9 µM | Cytotoxicity [2]: > 1000 µM | Content in formulation F1 ([3]; Day 1, HPLC): 0.1991 ± 0.0004 %w/w | Content in formulation F1 ([3]; Day 30, 45 °C, HPLC): 0.1940 ± 0.0057 %w/w | %Remaining in formulation F1 ([3]; after 30 days (1 month) at 45 °C): 97.44% | remaining at 720 h [3]: > 90%

C[C@@H]1O[C@@H](Oc2cc(O)c3c(=O)c(O)c(-c4ccc(O)cc4)oc3c2)[C@H](O)[C@H](O)[C@H]1O [Compound 3, kaempferol-7-O-α-L-rhamnopyranoside]
IC50 [1, 5]: 23 ± 1.3 µM | Cytotoxicity (in words) ([2]; B16F10 cells, b13: 72 h, concentrations as high as 1000 µM): absence of discernible cytotoxicity; also recorded: no significant toxicity was observed | Cytotoxicity [2]: > 1000 µM | Content in formulation F1 ([3]; Day 1, HPLC): 0.0050 ± 0.0005 %w/w | Content in formulation F1 ([3]; Day 30, 45 °C, HPLC): 0.0048 ± 0.0003 %w/w | remaining at 720 h [3]: > 90%

CC1OC(Oc2cc(O)c3c(=O)c(OC4OC(CO)C(O)C(O)C4O)c(-c4ccc(O)cc4)oc3c2)C(O)C(O)C1O [Compound 4, kaempferol-3-O-β-D-glucopyranosyl-7-O-α-L-rhamnopyranoside]
IC50 [1, 5]: > 200 µM | Cytotoxicity [2]: > 1000 µM

O=c1c(O)c(-c2ccc(O)cc2)oc2cc(O)cc(O)c12 [kaempferol]
Effect on melanin production and melanocyte growth [4]: induce melanin production and melanocyte growth

Quercetin-3-O-rhamnoside [Compound 1]
IC50 ([1]; 72 h treatment): 135 ± 2.1 µM
